Assay results published in ChEMBL document CHEMBL1151120, “Plant antimutagenic agents, 3. Coumarins” (J Nat Prod, 1988).

Experiments:
Format in all cases: functional, Salmonella enterica subsp. enterica serovar Typhimurium, T98
[1] = system: Salmonella typhimurium; assay: Antimutagenic activity in Salmonella Typhimurium […] assessed as inhibition of 2-aminoanthracene-induced mutation at 300 ug/plate after 72 hrs in presence of Ames S-9 fraction
[2] = system: Salmonella typhimurium; assay: Antimutagenic activity in Salmonella Typhimurium […] assessed as inhibition of 2-aminoanthracene-induced mutation at 150 ug/plate after 72 hrs in presence of Ames S-9 fraction
[3] = system: Salmonella typhimurium; assay: Antimutagenic activity in Salmonella Typhimurium […] assessed as inhibition of 2-nitroflorene-induced mutation at 300 ug/plate after 72 hrs
[4] = system: Salmonella typhimurium; assay: Antimutagenic activity in Salmonella Typhimurium […] assessed as inhibition of acetylaminofluorene-induced mutation at 150 ug/plate after 72 hrs in presence of Ames S-9 fraction
[5] = system: Salmonella typhimurium; assay: Antimutagenic activity in Salmonella Typhimurium […] assessed as inhibition of acetylaminofluorene-induced mutation at 600 ug/plate after 72 hrs in presence of Ames S-9 fraction
[6] = system: Salmonella typhimurium; assay: Antimutagenic activity in Salmonella Typhimurium […] assessed as inhibition of benzo[a]pyrene-induced mutation at 150 ug/plate after 72 hrs in presence of Ames S-9 fraction
[7] = system: Salmonella typhimurium; assay: Antimutagenic activity in Salmonella Typhimurium […] assessed as inhibition of 2-aminoanthracene-induced mutation at 600 ug/plate after 72 hrs in presence of Ames S-9 fraction
[8] = system: Salmonella typhimurium; assay: Antimutagenic activity in Salmonella Typhimurium […] assessed as inhibition of 2-nitroflorene-induced mutation at 150 ug/plate after 72 hrs
[9] = system: Salmonella typhimurium; assay: Antimutagenic activity in Salmonella Typhimurium […] assessed as inhibition of acetylaminofluorene-induced mutation at 300 ug/plate after 72 hrs in presence of Ames S-9 fraction
[10] = system: Salmonella typhimurium; assay: Antimutagenic activity in Salmonella Typhimurium […] assessed as inhibition of benzo[a]pyrene-induced mutation at 600 ug/plate after 72 hrs in presence of Ames S-9 fraction
[11] = system: Salmonella typhimurium; assay: Antimutagenic activity in Salmonella Typhimurium […] assessed as inhibition of 2-nitroflorene-induced mutation at 600 ug/plate after 72 hrs
[12] = system: Salmonella typhimurium; assay: Antimutagenic activity in Salmonella Typhimurium […] assessed as inhibition of benzo[a]pyrene-induced mutation at 300 ug/plate after 72 hrs in presence of Ames S-9 fraction

Row | Structure (SMILES) | inhibition (INH) [1] [%] | inhibition (INH) [2] [%] | inhibition (INH) [3] [%] | inhibition (INH) [4] [%] | inhibition (INH) [5] [%] | inhibition (INH) [6] [%] | inhibition (INH) [7] [%] | inhibition (INH) [8] [%] | inhibition (INH) [9] [%] | inhibition (INH) [10] [%] | inhibition (INH) [11] [%] | inhibition (INH) [12] [%]
1 | COc1c2ccoc2cc2oc(=O)ccc12 [BERGAPTEN] | 0 | 0 | 41 | 0 | 0 | 61 | 23 | 27 | 0 | 75 | 40 | 67
2 | O=c1ccc2ccccc2o1 [COUMARIN] | 0 | 0 | 17 | 5 | 36 | 10 | 22 | 24 | 28 | 53 | 73 | 16
3 | COc1c2occc2cc2ccc(=O)oc12 [METHOXSALEN] | 0 | 0 | 39 | 0 | 39 | 58 | 44 | 5 | 21 | 86 | 25 | 76
4 | COc1ccc2ccc(=O)oc2c1CC=C(C)C [OSTHOLE] | 0 | 0 | 55 | 51 | 74 | 13 | 68 | 29 | 56 | 54 | 80 | 49
5 | CC(C)=CCOc1c2occc2cc2ccc(=O)oc12 [PENTOSALEN] | 0 | 0 | 43 | 35 | – | 86 | 81 | 22 | 56 | 90 | 58 | 87
6 | O=c1ccc2cc3ccoc3cc2o1 [PSORALEN] | – | – | – | – | – | – | 60 | – | – | – | – | –
7 | O=c1ccc2ccc(O)cc2o1 [UMBELLIFERONE] | – | – | – | – | – | – | 14 | – | – | – | – | –
